# System: Acute Musculoskeletal Pain
# Test: Randomized active controlled study of BSC-4 in adult patients with acute musculoskeletal pain (NRS, PRS, PPR, MPR, PGIC)
# Assay type: in vivo, human
# Text: A Randomized Active Controlled Study to Assess the Efficacy of Sesame Oil Loaded with Boswellia Extract and Curcuminoid Composition (BSC-4) in Adult Patients with Acute Musculoskeletal Pain. Sample size for the study: 88 Subjects were randomized with 1:1 ratio of male and female in each group. Subject selection—Subjects were selected from the screening site who were ready to give a voluntary informed consent and who meets study inclusion criteria. • 1. Adult patient, Male or female between 18-65 years of age. • 2. A score of 5 or above on the Numerical Rating Scale. • 3. Patients having acute musculoskeletal pain which occurred within 24 hours before presentation e.g. headache musculoskeletal injuries, myalgia, neck pain, limb pain, low back pain, joint pain, widespread musculoskeletal pain, painful uncomplicated acute soft tissue injury of the upper or lower extremity, including acute injuries of ligaments, tendons, or muscles (including Grade 1), not requiring admittance to hospital. • 4. Willing to give voluntary informed consent. Visit 1, randomization; subject were provided BSC-4 or Paracetamol as per the pre-documented randomization list accessed only by pharmacist. Patients were entering the NRS, PRS, and PGIC in the diary before and after 2 hour of taking the dose. Follow up calls were made over phone for patents compliance to treatment, diary completion. The follow up on day 3 the patient were reminded to bring the diary for review and bottle for IP accountability at the next visit. Visit 2, Physical examination, vitals, and patient diary were checked. Post dose (2 hours) pain intensity using NRS, pain relief using categorical PRS, and patient's global impression of change (PGIC) were recoded. Visit 3, next visit on 6th day from the visit 1, Patients entered the NRS, PRS, and PGIC in the diary before and after 2 hrs of taking the dose. Follow up calls were made over phone for their compliance to treatment, diary completion. The follow up on day 6 the patient were reminded to bring the diary for review and bottle for IP accountability at the next visit. Physical examination, vitals, and patient diary were checked. Post dose (2 hours) pain intensity using NRS, pain relief using categorical PRS, and patient's global impression of change (PGIC) were recorded. The NRS is an 11-point scales in which 0 represents ‘no pain’ and 10 represents the worst pain possible. The patient were asked to rate their pain intensity as a number from 0 to 10. Alternatively, for better conception it may be explained as below. The NRS were recorded on screening and those patients who have 5 or above score only were enrolled into the study. After the first dose the patient were give the pain intensity rating every 30 minutes up to 6 hours post dose for calculating SPID 6 hrs. The NRS was included in the diary and the patient was required to give the pain intensity every morning before taking the dose and 2 hrs after dose until the end of the study. The average of the recorded data is provided in a graphical form in FIG. 7 (b). The average percentage change of patents when they visited the centre on day 3 and day 7 is provided below. The pain relief scale is a categorical scale having a positive progression from ‘No relief’ to ‘complete relief’. After the first dose the patient rated the pain relief every 30 minutes up to 6 hours for the assessment of Total pain relief 6 hours. The average pain relief score for the 6 hours test was recorded and represented in graphical form in FIG. 8 (a). The pain relief scale was included in the diary and the patient was required to give the pain relief every morning before taking the dose and 2 hours after dose until the end of the study. The average pain relief score for the seven days test was recorded in diary and represented in graphical form in FIG. 8 (b). After dosing the two stop watches were given to the patient. The patient had to stop one of the watches when they felt relief from pain. […]
smiles,measurement,setting,value
CC(=O)Nc1ccc(O)cc1 [Paracetamol],NRS score in six hours,"FIG. 7(a), 0-10 scale, baseline around 6",2
same,NRS score by the end of 7th day,"FIG. 7(b), 0-10 scale, baseline close to 6",~1
same,PRS score in six hours,"FIG. 8(a), scale 1 No Relief to 5 Complete Relief, baseline around 1",3
same,PRS score by the end of 7th day,"FIG. 8(b), scale 1-5, baseline close to 1",~3
same,Percentage change in pain intensity at 6 hours,"NRS, 6 hours after first dose",72.1%
same,"Percentage change in pain intensity in 7 days, day 3","NRS, day 3",24.8%
same,"Percentage change in pain intensity in 7 days, day 7","NRS, day 7",83.62%
same,Percentage change in pain relief at 6 hours,"PRS, 6 hours after first dose, threshold reached by the n patients in the same cell",> 75%
same,Number of patients (n) with the stated percentage change in pain relief at 6 hours,"PRS, 6 hours, of n = 44 per group, >75% change",30
same,"Number of patients (n) with the stated percentage change in pain relief, Day 3","PRS, Day 3, of n = 44 per group, >50% change",20
same,"Percentage change in pain relief, Day 3","PRS, Day 3, threshold reached by the n patients in the same cell",> 50%
same,"Number of patients (n) with the stated percentage change in pain relief, Day 7","PRS, Day 7, of n = 44 per group, >75% change",37
same,"Percentage change in pain relief, Day 7","PRS, Day 7, threshold reached by the n patients in the same cell",> 75%
same,Meaningful pain relief,"average time to meaningful pain relief (MPR), censored at 6 hours",4.51 h
same,Perceptible pain relief,"average time to perceptible pain relief (PPR), stop watch",2.62 h
same,"PGIC score, Day 2","scale 1 Very Much Improved to 7 Very Much Worse, Day 2",3
same,"PGIC score, Day 3","scale 1 Very Much Improved to 7 Very Much Worse, Day 3",3
same,"PGIC score, Day 4","scale 1 Very Much Improved to 7 Very Much Worse, Day 4",3
same,"PGIC score, Day 5","scale 1 Very Much Improved to 7 Very Much Worse, Day 5",3
same,"PGIC score, Day 6","scale 1 Very Much Improved to 7 Very Much Worse, Day 6",3
same,"PGIC score, Day 7","scale 1 Very Much Improved to 7 Very Much Worse, Day 7",2

# — patent publication US12527833B2, “Pharmaceutical composition made from hydrophobic phytochemicals dispersed in sesame oil to enhance bioactivity” (ARJUNA NATURAL PVT. LTD., priority 2017, dated 2026)
